In patent US9029401B2 (The Regents of the University of California, priority 2011, dated 2015):
Where two headings read alike, the source gives them in different places. Blank lines part the entries; values can stand above or below the compound they belong to.

What was measured:
[1] = test system: ACHN renal cell carcinoma cell line; test: MTT cell viability assay, ACHN; type: cell-based; conditions: Homo sapiens, 72 h, read-out: EC50 on cell viability, ACHN (Kidney)
Experimental: (§1) Cell-based assays were performed using the described cell lines, grown in the appropriate Growth Mediums containing 10% fetal bovine serum and 1% penicillin-streptomycin. Cancer cells were plated at 15,000 cells/well in 96-well plates and allowed to attach overnight. […] Cell viability was determined after 72 hours incubation periods. To determine anti-proliferative effects of inhibitors, cellular proliferation was determined using the colorimetric MTT cell viability assay kit, as described by the manufacture (ATCC).

human sEH = human sEH (Homo sapiens (Human), UniProt P34913); test: Inhibitory activity against human sEH; type: biochemical
Sequence of human sEH (P34913 whole entry): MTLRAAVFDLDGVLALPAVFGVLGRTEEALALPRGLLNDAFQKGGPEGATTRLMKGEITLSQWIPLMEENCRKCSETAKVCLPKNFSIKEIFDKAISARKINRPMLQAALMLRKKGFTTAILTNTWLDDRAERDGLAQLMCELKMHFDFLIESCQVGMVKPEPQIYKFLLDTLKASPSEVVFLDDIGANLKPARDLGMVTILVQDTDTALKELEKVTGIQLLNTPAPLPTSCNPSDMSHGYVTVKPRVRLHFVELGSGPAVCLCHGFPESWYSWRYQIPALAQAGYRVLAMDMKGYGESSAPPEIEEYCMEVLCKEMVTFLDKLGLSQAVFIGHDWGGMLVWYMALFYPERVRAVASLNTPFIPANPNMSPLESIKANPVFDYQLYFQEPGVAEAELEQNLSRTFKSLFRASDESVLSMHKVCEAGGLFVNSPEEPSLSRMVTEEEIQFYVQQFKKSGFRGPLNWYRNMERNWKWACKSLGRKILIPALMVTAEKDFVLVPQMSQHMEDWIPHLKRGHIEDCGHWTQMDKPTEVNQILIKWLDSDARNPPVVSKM

HepG2 hepatoma cell line = test: MTT cell viability assay, HepG2; type: cell-based; conditions: for EC50: Homo sapiens, read-out: EC50 on cell viability, HepG2 (Liver)
Experimental: as §1

Huh-7 hepatoma cell line = test: MTT cell viability assay, Huh-7; type: cell-based; conditions: Homo sapiens, read-out: EC50 on cell viability, Huh-7 (Liver)
Experimental: as §1

Raf-1 = Raf-1 (Homo sapiens (Human), UniProt P04049); test: In vitro kinase inhibition assay (ADP-Glo), Raf-1; type: biochemical
Sequence of Raf-1 (P04049 whole entry): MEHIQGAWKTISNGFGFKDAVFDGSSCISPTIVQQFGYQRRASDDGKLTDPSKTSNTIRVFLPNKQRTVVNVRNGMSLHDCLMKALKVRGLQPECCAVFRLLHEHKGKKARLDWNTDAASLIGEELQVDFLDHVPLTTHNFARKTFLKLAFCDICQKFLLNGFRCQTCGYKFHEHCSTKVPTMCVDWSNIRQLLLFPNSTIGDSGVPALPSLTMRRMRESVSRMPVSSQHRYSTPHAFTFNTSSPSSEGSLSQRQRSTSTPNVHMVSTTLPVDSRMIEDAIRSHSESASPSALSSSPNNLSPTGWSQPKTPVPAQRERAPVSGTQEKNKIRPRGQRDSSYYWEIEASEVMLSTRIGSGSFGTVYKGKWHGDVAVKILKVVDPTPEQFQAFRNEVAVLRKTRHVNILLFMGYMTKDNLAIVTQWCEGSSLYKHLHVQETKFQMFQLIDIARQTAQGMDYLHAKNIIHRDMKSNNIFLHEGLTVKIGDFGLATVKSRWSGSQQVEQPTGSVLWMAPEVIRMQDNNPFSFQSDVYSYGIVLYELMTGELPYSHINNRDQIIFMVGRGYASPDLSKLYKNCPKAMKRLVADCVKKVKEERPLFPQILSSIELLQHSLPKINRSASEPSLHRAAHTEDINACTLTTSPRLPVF
Experimental: (§2) All measurements included background and control (vehicle only) luminescence readings.
(§3) The kinases Raf-1 and b-Raf (V600E), and their corresponding substrate, MEK1, and Full length recombinant CRAF kinase and its respective substrate, recombinant MEK1, were purchased from US Biological (Swampscott, Mass.). All assays were performed under identical conditions for the Raf isozymes: 10 nM Enzyme, 1 μM MEK1, 10 μM ATP, at 22° C. for 2 hours. […] IC50 values were obtained by determining the change in the ADP production (luminescence signal) at various inhibitor concentrations as compared to the control assay. Individual data sets were performed in duplicate and each IC50 was determined by the average and standard deviation of three separate experiments.
as §3, with “Full” for “The kinases Raf-1 and b-Raf (V600E), and their corresponding substrate, MEK1, and Full”, “at” for “under identical conditions for the Raf isozymes:”, “CRAF,” for “Enzyme,”, “(luminescent” for “(luminescence”, “mean” for “average”

b-Raf (V600E) = b-Raf (V600E) (Homo sapiens (Human), UniProt P15056, V600E); test: In vitro kinase inhibition assay (ADP-Glo), b-Raf (V600E); type: biochemical
Sequence of b-Raf (V600E) (P15056 whole entry V600E): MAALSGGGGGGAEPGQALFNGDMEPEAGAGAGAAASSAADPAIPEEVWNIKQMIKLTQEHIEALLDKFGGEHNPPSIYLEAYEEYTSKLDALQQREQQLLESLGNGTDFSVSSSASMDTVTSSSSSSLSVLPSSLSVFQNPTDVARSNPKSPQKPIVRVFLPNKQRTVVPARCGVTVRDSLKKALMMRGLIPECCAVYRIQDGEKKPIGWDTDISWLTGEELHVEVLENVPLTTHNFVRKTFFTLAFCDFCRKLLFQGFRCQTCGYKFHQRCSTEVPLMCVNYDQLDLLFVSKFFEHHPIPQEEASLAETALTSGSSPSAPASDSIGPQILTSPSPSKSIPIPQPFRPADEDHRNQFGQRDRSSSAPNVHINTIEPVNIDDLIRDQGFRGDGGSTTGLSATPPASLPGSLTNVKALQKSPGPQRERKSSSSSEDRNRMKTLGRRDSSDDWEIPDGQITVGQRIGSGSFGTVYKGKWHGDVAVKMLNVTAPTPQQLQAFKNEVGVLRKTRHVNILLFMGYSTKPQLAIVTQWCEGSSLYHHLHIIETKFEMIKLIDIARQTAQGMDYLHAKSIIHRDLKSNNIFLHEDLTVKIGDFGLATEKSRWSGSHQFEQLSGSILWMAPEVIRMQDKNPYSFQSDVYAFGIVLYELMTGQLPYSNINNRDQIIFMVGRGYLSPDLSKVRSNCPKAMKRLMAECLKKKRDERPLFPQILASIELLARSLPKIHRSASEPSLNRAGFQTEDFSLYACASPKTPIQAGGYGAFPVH
Experimental: as §2, §3

[2] = test system: SKBR3 breast cancer cell line; test: MTT cell viability assay, SKBR3; type: cell-based; conditions: Homo sapiens, read-out: EC50 on cell viability, SKBR3 (Breast)
Experimental: (§4) Cell-based assays were performed using the described cell lines, grown in the appropriate Growth Mediums containing 10% fetal bovine serum and 1% penicillin-streptomycin. Cancer cells were plated at 15,000 cells/well in 96-well plates and allowed to attach overnight. Inhibitors were dissolved in DMSO and then diluted to concentrations ranging from 0.1-25 μM with a final DMSO concentration of 0.1%. Cell viability was determined after 72 hours incubation periods. To determine anti-proliferative effects of inhibitors, cellular proliferation was determined using the colorimetric MTT cell viability assay kit, as described by the manufacture (ATCC).

[3] = test system: T47D breast cancer cell line; test: MTT cell viability assay, T47D; type: cell-based; conditions: Homo sapiens, 72 hours incubation
Experimental: as §4

[4] = test system: PC-3 prostate cancer cell line; test: MTT cell viability assay, PC-3; type: cell-based; conditions: 72 h, read-out: EC50 on cell viability, PC-3 (Prostate)
Experimental: as §4

[5] = 10 nM enzyme, 1 μM MEK1, 10 μM ATP, 22° C., 2 hours, read-out: Raf-1 IC50

SMILES: O=C(NC12CC3CC(CC(C3)C1)C2)N[C@H]1CC[C@H](Oc2ccc(C(=O)O)cc2)CC1 [Compound 1471, reference compound]
EC50 [1]: > 25000 nM

SMILES: O=C(Nc1ccc(OC(F)(F)F)cc1)N[C@H]1CC[C@H](Oc2ccc(C(=O)O)cc2)CC1 [Compound 1728, trans-4-{4-[3-(4-Trifluoromethoxy-phenyl)-ureido]-cyclohexyloxy}-benzoic acid]
Effect on Hep G2 cell viability (dose dependence) (HepG2 hepatoma cell line; FIG. 2): limited effect | Effect on Hep G2 cell viability (dose dependence) (HepG2 hepatoma cell line; FIG. 4): limited effect | EC50 (HepG2 hepatoma cell line; HepG2, 72 h): 15000 nM | Effect on sunitinib's ability to kill cancer cells (HepG2 hepatoma cell line; administered in combination with sunitinib, Hep G2): potentiates | EC50 [1]: 15000 nM | EC50 (Huh-7 hepatoma cell line; Huh-7, 72 h): 20000 nM

SMILES: O=C(Nc1ccc(Cl)cc1)N[C@H]1CC[C@H](Oc2ccc(C(=O)O)cc2)CC1 [Compound 2084, trans-4-{4-[3-(4-Chloro-phenyl)-ureido]-cyclohexyloxy}-benzoic acid]
IC50 (Raf-1; [5]): > 10000 nM | IC50 (human sEH; read-out: Human sEH IC50): 5.5 nM

SMILES: N#Cc1ccc(O[C@H]2CC[C@H](NC(=O)Nc3ccc(Cl)c(C(F)(F)F)c3)CC2)cc1 [Compound 2182, trans-1-(4-Chloro-3-trifluoromethyl-phenyl)-3-[4-(4-cyano-phenoxy)-cyclohexyl]-urea]
IC50 (human sEH): 14.6 nM

SMILES: O=C(Nc1ccc(Cl)c(C(F)(F)F)c1)N[C@H]1CC[C@H](Oc2ccc(C(=O)O)cc2)CC1 [Compound 2221, trans-4-{4-[3-(4-Chloro-3-trifluoromethyl-phenyl)-ureido]-cyclohexyloxy}-benzoic acid]
IC50 (b-Raf (V600E)): > 10000 nM | IC50 (human sEH): 0.5 nM

SMILES: CNC(=O)c1ccc(O[C@H]2CC[C@@H](NC(=O)Nc3ccc(OC(F)(F)F)cc3)CC2)cc1 [Compound 2228, cis-N-Methyl-4-{4-[3-(4-trifluoromethoxy-phenyl)-ureido]-cyclohexyloxy}-benzamide]
IC50 (Raf-1): > 10000 nM

SMILES: CC(C)(C)OC(=O)c1cc(O[C@H]2CC[C@H](NC(=O)Nc3ccc(Cl)c(C(F)(F)F)c3)CC2)ccn1 [Compound 2280, trans-4-{4-[3-(4-Chloro-3-trifluoromethyl-phenyl)-ureido]-cyclohexyloxy}-pyridine-2-carboxylic acid tert-butyl ester]
IC50 (b-Raf (V600E)): > 10000 nM

SMILES: CNC(=O)c1cc(Oc2ccc(NC(=O)NC34CC5CC(CC(C5)C3)C4)cc2)ccn1 [Compound 2287, 4-[4-(3-Adamantan-1-yl-ureido)-phenoxy]-pyridine-2-carboxylic acid methylamide]
IC50 (b-Raf (V600E)): > 10000 nM | IC50 (Raf-1; [5]): > 10000 nM | IC50 (human sEH; read-out: Human sEH IC50): 0.5 nM

SMILES: O=C(Nc1ccc(Cl)c(C(F)(F)F)c1)N[C@H]1CC[C@H](Oc2ccc(C(F)(F)F)cn2)CC1 [Compound 2288, trans-1-(4-Chloro-3-trifluoromethyl-phenyl)-3-[4-(5-trifluoromethyl-pyridin-2-yloxy)-cyclohexyl]-urea]
IC50 (b-Raf (V600E)): > 10000 nM | IC50 (Raf-1; [5]): > 10000 nM | IC50 (human sEH; read-out: Human sEH IC50): 9 nM

SMILES: CNC(=O)c1ccc(O[C@H]2CC[C@H](NC(=O)Nc3ccc(Cl)c(C(F)(F)F)c3)CC2)cn1 [Compound 2316, trans-5-{4-[3-(4-Chloro-3-trifluoromethyl-phenyl)-ureido]-cyclohexyloxy}-pyridine-2-carboxylic acid methylamide]
IC50 (b-Raf (V600E)): 1500 nM | IC50 (Raf-1; [5]): 175 ± 20 nM | IC50 (human sEH; read-out: Human sEH IC50): 0.5 nM

SMILES: N#Cc1ccc(O[C@H]2CC[C@H](NC(=O)Nc3ccc(OC(F)(F)F)cc3)CC2)cc1 [Compound 2581, trans-1-[4-(4-Cyano-phenoxy)-cyclohexyl]-3-(4-trifluoromethoxy-phenyl)-urea]
IC50 (human sEH; read-out: Human sEH IC50): 0.5 nM

SMILES: CNC(=O)c1cc(Oc2ccc(NC(=O)Nc3ccc(Cl)c(C(F)(F)F)c3)cc2)ccn1 [Sorafenib, reference compound]
EC50 [1]: 4000 nM | EC50 [3]: 3000 nM | EC50 [4]: 5500 nM | EC50 (Huh-7 hepatoma cell line; Huh-7, 72 h): 4200 nM | EC50 ([2]; SK-BR-3, 72 h): 6500 nM

Results, then the compound that gave them:

IC50 (human sEH; read-out: Human sEH IC50): 3.4 nM
SMILES: CCOC(=O)c1ccc(O[C@H]2CC[C@@H](NC(=O)Nc3ccc(OC(F)(F)F)cc3)CC2)cc1 [Compound 1612, reference compound]

IC50 (human sEH; read-out: Human sEH IC50): 0.5 nM
SMILES: CNC(=O)c1ccc(O[C@H]2CC[C@H](NC(=O)Nc3ccc(Cl)c(C(F)(F)F)c3)CC2)cc1 [Compound 2253, trans-4-{4-[3-(4-Chloro-3-trifluoromethyl-phenyl)-ureido]-cyclohexyloxy}-N-methyl-benzamide]

IC50 (Raf-1; [5]): > 10000 nM | IC50 (human sEH; read-out: Human sEH IC50): 0.5 nM
SMILES: CC(C)(C)OC(=O)c1ccc(O[C@H]2CC[C@H](NC(=O)Nc3ccc(Cl)c(C(F)(F)F)c3)CC2)cn1 [Compound 2315, trans-5-{4-[3-(4-Chloro-3-trifluoromethyl-phenyl)-ureido]-cyclohexyloxy}-pyridine-2-carboxylic acid tert-butyl ester]

inhibition at 10 µM (b-Raf (V600E); at 10 μM concentration): 51% | inhibition at 10 µM (Raf-1; read-out: Raf-1 % inhibition, at 10 μM concentration): 54%
SMILES: CC(C)(C)OC(=O)c1cc(O[C@H]2CC[C@@H](NC(=O)Nc3ccc(Cl)c(C(F)(F)F)c3)CC2)ccn1 [Compound 2318, cis-4-{4-[3-(4-Chloro-3-trifluoromethyl-phenyl)-ureido]-cyclohexyloxy}-pyridine-2-carboxylic acid tert-butyl ester]

EC50 (HepG2 hepatoma cell line; HepG2, MTT, 72 hours incubation): 7500 nM | EC50 (Huh-7 hepatoma cell line; Huh-7, MTT, 72 hours incubation): 8500 nM | EC50 ([2]; SK-BR-3, MTT, 72 hours incubation): 8000 nM | IC50 (human sEH; read-out: Human sEH IC50): 0.5 nM
SMILES: CNC(=O)c1cc(O[C@H]2CC[C@@H](NC(=O)Nc3ccc(Cl)c(C(F)(F)F)c3)CC2)ccn1 [Compound 2319, cis-4-{4-[3-(4-chloro-3-trifluoromethyl-phenyl)-ureido]-cyclohexyloxy}-pyridine-2-carboxylic acid methylamide]

IC50 (Raf-1; [5]): > 10000 nM | IC50 (human sEH; read-out: Human sEH IC50): 0.9 nM
SMILES: O=C(Nc1ccc(C(F)(F)F)cc1)N[C@H]1CC[C@H](Oc2ccc(C(=O)O)cc2)CC1 [Compound 2372, trans-4-{4-[3-(4-Trifluoromethyl-phenyl)-ureido]-cyclohexyloxy}-benzoic acid]

IC50 (Raf-1; [5]): > 10000 nM | IC50 (human sEH; read-out: Human sEH IC50): 0.5 nM
SMILES: CCN(CC)C(=O)c1cc(O[C@H]2CC[C@H](NC(=O)Nc3ccc(Cl)c(C(F)(F)F)c3)CC2)ccn1 [Compound 2574, trans-4-{4-[3-(4-Chloro-3-trifluoromethyl-phenyl)-ureido]-cyclohexyloxy}-pyridine-2-carboxylic acid diethylamide]

IC50 (Raf-1; [5]): > 10000 nM | IC50 (human sEH; read-out: Human sEH IC50): 0.5 nM
SMILES: CNC(=O)c1cc(O[C@H]2CC[C@H](NC(=O)Nc3ccc(OC(F)(F)F)cc3)CC2)ccn1 [Compound 2575, trans-4-{4-[3-(4-Trifluoromethoxy-phenyl)-ureido]-cyclohexyloxy}-pyridine-2-carboxylic acid methylamide]

IC50 (human sEH; read-out: Human sEH IC50): 0.5 nM
SMILES: CCN(CC)C(=O)c1cc(O[C@H]2CC[C@H](NC(=O)Nc3ccc(OC(F)(F)F)cc3)CC2)ccn1 [Compound 2577, trans-4-{4-[3-(4-Trifluoromethoxy-phenyl)-ureido]-cyclohexyloxy}-pyridine-2-carboxylic acid diethylamide]

IC50 (human sEH; read-out: Human sEH IC50): 0.5 nM
SMILES: O=C(Nc1ccc(OC(F)(F)F)cc1)N[C@H]1CC[C@H](Oc2ccnc(C(=O)N3CCCC3)c2)CC1 [Compound 2578, trans-1-{4-[2-(Pyrrolidine-1-carbonyl)-pyridin-4-yloxy]-cyclohexyl}-3-(4-trifluoromethoxy-phenyl)-urea]

IC50 (human sEH; read-out: Human sEH IC50): 0.5 nM
SMILES: N#Cc1ccc(O[C@H]2CC[C@H](NC(=O)Nc3ccc(C(F)(F)F)cc3)CC2)cc1 [Compound 2579, trans-1-[4-(4-Cyano-phenoxy)-cyclohexyl]-3-(4-trifluoromethyl-phenyl)-urea]

IC50 (human sEH; read-out: Human sEH IC50): 0.5 nM
SMILES: N#Cc1ccc(O[C@H]2CC[C@H](NC(=O)Nc3ccc(Cl)cc3)CC2)cc1 [Compound 2580, trans-1-(4-Chloro-phenyl)-3-[4-(4-cyano-phenoxy)-cyclohexyl]-urea]
